Values quoted from earlier work in patent publication US12496272B1, “Stable epinephrine suspension formulation for inhalation with HFO propellant” (Amphastar Pharmaceuticals, Inc., priority 2024, dated 2025).

SMILES	Log P (octanol/water)	Water solubility (at 25° C.) [at 25 °C ppm]
F/C=C/C(F)(F)F [HFO-1234ze(E), trans-1,3,3,3-tetrafluoropropene]	1.3	
FC(C(F)(F)F)C(F)(F)F [HFA-227, 1,1,1,2,3,3,3-heptafluoropropane]	2.1	
FCC(F)(F)F [HFA-134a, 1,1,1,2-tetrafluoroethane]	1.1	2220
